{"source": "patent US10765673B2", "about": "“Methods and compositions useful for treating diseases involving Bcl-2 family proteins with quinoline derivatives” (Eutropics Pharmaceuticals, Inc., priority 2012, dated 2020)", "key": {"Mcl-1 1780 cell line": {"system": "Mcl-1 1780 cell line", "assay": "DAPI fluorescence cell-based cytotoxicity (apoptosis) assay, Mcl-1 1780", "set-up": "species or system mouse", "conditions": "Mcl-1 1780, 24 hours, 125 nM to 1 μM", "description": "(§1) The mouse leukemia-derived cell lines Mcl-1-1780 and Bcl-2-1863 (Ryan et al., Proc. Nat. Acad. Sci USA, 107, 12895-12900, which is hereby incorporated by reference in its entirety) were obtained under license from Dana Farber Cancer Institute. Cells were grown in RPMI 1640 medium (GIBCO-BRL) with 2 mM L-glutamine, 4.5 g/L glucose, 1.0 mM sodium pyruvate and 5% fetal bovine serum. Cells were expanded in tissue culture in appropriate media and then sub-cultured into 96-well plates at a seeding density of 20,000 cells per well. After incubation for 24 hours, cells were treated with compounds that are titrated into appropriate medium with FCS. Four concentrations of compound were used: 1 μM, 500 nM, 250 nM, and 125 nM. Assay was run in triplicate for each compound at each concentration and averages were calculated. Cells were treated with compound for 24 hours, then fixed with methanol and stained with the DNA-binding agent DAPI (4′,6-diamidino-2-phenylindole). The cells were then examined by fluorescent microscopy; cells in which caspase 3 and caspase 7 have not been activated will emit at […] when excited by […] light. Caspase-mediated cleavage of nucleosomal proteins causes condensed, pyenotic nuclear morphology that may be measured by cell counting."}, "DHL-8": {"system": "DHL-8", "assay": "In situ mitochondrial cytochrome c release assay, DHL-8", "format": "cell-based", "conditions": "DHL-8, semi-permeabilized cells, 1 hour", "text": "(§2) The on-target activity of compound 12 was validated. Changes in mitochondrial integrity were observed utilizing anti-cytochrome c conjugated to Alexa488 (BD). When the mitochondria are intact, they retain cytochrome c and have bright, punctate staining with the antibody whereas cells with compromised mitochondrial integrity will lose cytochrome c and will not stain with the antibody. This can be observed by microscopy as well as measured by a shift in fluorescence on the FL1 channel of a flow cytometer.\n(§3) The selective response of mitochondria in semi-permeabilized cell lines to the compounds was observed. The assay was adapted from (Campos et al. (2006) Cytometry Part A. 69(A):515-523, which is hereby incorporated by reference in its entirety).\n(§4) Suspension cell lines SUDHL6, SUDHL8, and SUDHL10 were grown in RPMI, washed once in 1×PBS and re-suspended at a concentration of 2e6/ml in assay buffer with 0.0025% Digitonin. Assay buffer; 300 mM Trehalose, 10 mM HEPES-KOH pH 7.7, 80 mM KCl, 1 mM EGTA, 1 mM EDTA, 0.1% BSA. 5 mM Succinate. […] Cytochrome c loss was measured by microscopy. At least 100 cells per treatment were counted and scored as positive for cytochrome c loss if they lacked staining. In both methods DMSO was calculated as 0% cytochrome c loss and the Bim response for DHL6 was used to determine 100% cytochrome c loss."}, "DHL-6": {"system": "DHL-6", "assay": "In situ mitochondrial cytochrome c release assay, DHL-6", "format": "cell-based", "conditions": "DHL-6 (Bax/Bak-functional), semi-permeabilized cells, 1 hour", "text": "as §2, §3, §4"}, "Bcl-2 1863 cell line": {"system": "Bcl-2 1863 cell line", "assay": "DAPI fluorescence cell-based cytotoxicity (apoptosis) assay, Bcl-2 1863", "set-up": "species or system mouse", "conditions": "Bcl-2 1863, 24 hours, 125 nM to 1 μM", "description": "as §1"}, "DHL-10": {"system": "DHL-10", "assay": "In situ mitochondrial cytochrome c release assay, DHL-10", "format": "cell-based", "conditions": "DHL-10 (Bax/Bak-deficient), semi-permeabilized cells, 1 hour", "text": "as §2, §3, §4"}}, "data": [{"smiles": "CCN1CCN(C(c2ccc(C(F)(F)F)cc2)c2ccc3cccnc3c2O)CC1", "note": "(centres unmarked) [compound 12, 7-((4-ethylpiperazin-1-yl)(4-(trifluoromethyl)phenyl)methyl)quinolin-8-ol]", "values": [{"measurement": "induction of apoptosis (cells exhibiting apoptosis)", "setting": "Mcl-1 1780 cell line", "result": "induce apoptosis"}, {"measurement": "cytochrome c release", "setting": "DHL-8", "result": "reduced activity"}, {"measurement": "cytochrome c release", "setting": "DHL-6", "result": "activity"}, {"measurement": "induction of apoptosis (cells exhibiting apoptosis)", "setting": "Bcl-2 1863 cell line", "result": "significantly lesser degree"}, {"measurement": "cytochrome c release", "setting": "DHL-10", "result": "lack of activity"}]}]}
